Measured values reported in PubChem BioAssay (NCI).
Several values for one entry are separate records, joined by “and”; a condition that tells them apart may be missing. Identical values can stand only once.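 Tested at 5 concentrations; 48 h exposure; 96-well plates; endpoints linearly interpolated, else capped at highest concentration. GI50: concentration for 50% inhibition of growth. TGI denotes the concentration required for complete inhibition of growth.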

Tests used:
Assay in all cases: inhibition of tumour cell growth, NCI panel, 48 h
SNB-78 CNS = tested on: SNB-78 CNS
KM20L2 colon = tested on: KM20L2 colon
DMS 114 small cell lung = tested on: DMS 114 small cell lung
A549 NSCLC = tested on: A549 NSCLC
DMS 273 small cell lung = tested on: DMS 273 small cell lung
LXFL 529 NSCLC = tested on: LXFL 529 NSCLC
NCI-H226 lung = tested on: NCI-H226 lung
SF-295 CNS = tested on: SF-295 CNS
M19-MEL melanoma = tested on: M19-MEL melanoma
DLD-1 colon = tested on: DLD-1 colon
HOP-18 NSCLC = tested on: HOP-18 NSCLC
A498 renal = tested on: A498 renal
HOP-92 NSCLC = tested on: HOP-92 NSCLC

Compound: O=C1NC2(C=Cc3c(ccc4ccccc34)O2)Oc2ccccc21 (stereo not drawn)
- TGI (SNB-78 CNS): 94.1 µM
- TGI (KM20L2 colon): > 100 µM
- TGI (DMS 114 small cell lung): 51 µM
- TGI (A549 NSCLC): > 100 µM
- TGI (DMS 273 small cell lung): 76.1 µM
- TGI (LXFL 529 NSCLC): 56.4 µM
- TGI (NCI-H226 lung): 74.1 µM
- TGI (SF-295 CNS): 67.5 µM
- TGI (M19-MEL melanoma): > 100 µM

Compound: C[N+](C)(C)CC1CCCC/C1=N\O (stereo not drawn)
- TGI (SNB-78 CNS): > 100 µM
- TGI (KM20L2 colon): > 100 µM
- TGI (DMS 114 small cell lung): > 100 µM
- TGI (A549 NSCLC): > 100 µM
- TGI (DMS 273 small cell lung): > 100 µM
- TGI (LXFL 529 NSCLC): > 100 µM
- TGI (SF-295 CNS): > 100 µM
- TGI (DLD-1 colon): > 100 µM
- TGI (HOP-18 NSCLC): > 100 µM
- TGI (A498 renal): > 100 µM
- TGI (HOP-92 NSCLC): > 100 µM

Compound: COc1ccc(C2C(Cl)C(=O)N2NC(=O)Cc2ccccc2)cc1OC (stereo not drawn)
- TGI (SNB-78 CNS): > 100 µM
- TGI (KM20L2 colon): > 100 µM
- TGI (DMS 114 small cell lung): > 100 µM
- TGI (A549 NSCLC): > 100 µM
- TGI (DMS 273 small cell lung): > 100 µM
- TGI (NCI-H226 lung): > 100 µM
- TGI (SF-295 CNS): > 100 µM
- TGI (DLD-1 colon): > 100 µM
- TGI (HOP-18 NSCLC): > 100 µM
- TGI (M19-MEL melanoma): > 100 µM

Compound: COC(=O)C1C2CC3C(OC(=O)C31)C2OC(=O)[C@](OC)(c1ccccc1)C(F)(F)F (stereo partly drawn)
- TGI (SNB-78 CNS): > 100 µM
- TGI (KM20L2 colon): > 100 µM
- TGI (DMS 114 small cell lung): > 100 µM
- TGI (A549 NSCLC): > 100 µM
- TGI (DMS 273 small cell lung): > 100 µM
- TGI (LXFL 529 NSCLC): > 100 µM
- TGI (NCI-H226 lung): > 100 µM
- TGI (DLD-1 colon): > 100 µM
- TGI (A498 renal): > 100 µM
- TGI (M19-MEL melanoma): > 100 µM
- TGI (HOP-92 NSCLC): > 100 µM

Compound: O=C1C[C@H](c2ccc(O)c(O)c2)Oc2cc(O)cc(O)c21
- TGI (SNB-78 CNS): > 100 µM
- TGI (KM20L2 colon): > 100 µM
- TGI (DMS 114 small cell lung): > 100 µM
- TGI (A549 NSCLC): > 100 µM
- TGI (DMS 273 small cell lung): > 100 µM
- TGI (LXFL 529 NSCLC): > 100 µM
- TGI (NCI-H226 lung): > 100 µM
- TGI (SF-295 CNS): > 100 µM
- TGI (DLD-1 colon): > 100 µM
- TGI (HOP-18 NSCLC): > 100 µM
- TGI (A498 renal): > 100 µM
- TGI (M19-MEL melanoma): > 100 µM
- TGI (HOP-92 NSCLC): > 100 µM

Compound: COC[C@@H](Cc1ccc(OC)c(OC)c1)[C@@H](COC)Cc1ccc(OC)c(OC)c1
- TGI (SNB-78 CNS): > 100 µM
- TGI (KM20L2 colon): > 100 µM
- TGI (DMS 114 small cell lung): > 100 µM
- TGI (A549 NSCLC): > 100 µM
- TGI (DMS 273 small cell lung): > 100 µM
- TGI (LXFL 529 NSCLC): > 100 µM
- TGI (SF-295 CNS): > 100 µM
- TGI (DLD-1 colon): > 100 µM
- TGI (HOP-18 NSCLC): > 100 µM
- TGI (A498 renal): > 100 µM
- TGI (M19-MEL melanoma): > 100 µM
- TGI (HOP-92 NSCLC): > 100 µM

Compound: CN(CCO)/N=N/c1[nH]ncc1C(N)=O
- TGI (SNB-78 CNS): > 100 µM
- TGI (KM20L2 colon): > 100 µM
- TGI (DMS 114 small cell lung): > 100 µM
- TGI (A549 NSCLC): > 100 µM
- TGI (DMS 273 small cell lung): > 100 µM
- TGI (NCI-H226 lung): > 100 µM
- TGI (SF-295 CNS): > 100 µM
- TGI (DLD-1 colon): > 100 µM
- TGI (HOP-18 NSCLC): > 100 µM
- TGI (A498 renal): > 100 µM
- TGI (M19-MEL melanoma): > 100 µM
- TGI (HOP-92 NSCLC): > 100 µM

Compound: N#C/C(=C\c1ccccc1Br)C(=O)c1ccccc1
- TGI (SNB-78 CNS): > 100 µM
- TGI (KM20L2 colon): > 100 µM
- TGI (DMS 114 small cell lung): > 100 µM
- TGI (A549 NSCLC): > 70 µM
- TGI (DMS 273 small cell lung): > 100 µM
- TGI (LXFL 529 NSCLC): > 58.3 µM
- TGI (NCI-H226 lung): > 78.2 µM
- TGI (SF-295 CNS): > 87.5 µM
- TGI (A498 renal): > 100 µM
- TGI (M19-MEL melanoma): > 89.5 µM
- TGI (HOP-92 NSCLC): > 100 µM

Compound: CCCCCCCCCCSCC(CO)NC(=O)/C=C/c1c(C)[nH]c(=O)[nH]c1=O (stereo not drawn)
- TGI (SNB-78 CNS): > 31.6 µM
- TGI (KM20L2 colon): > 50 µM
- TGI (DMS 114 small cell lung): 5.93 µM and 4.33 µM
- GI50 (A549 NSCLC): > 44.4 µM
- TGI (A549 NSCLC): > 50 µM
- GI50 (DMS 273 small cell lung): 1.97 µM and 4.58 µM
- TGI (DMS 273 small cell lung): > 50 µM
- GI50 (NCI-H226 lung): 2.18 µM
- TGI (NCI-H226 lung): > 50 µM and 12.4 µM
- GI50 (SF-295 CNS): 14.6 µM
- TGI (SF-295 CNS): > 50 µM
- TGI (DLD-1 colon): > 50 µM
- GI50 (HOP-18 NSCLC): 2.91 µM and > 26.8 µM
- TGI (HOP-18 NSCLC): > 50 µM
- GI50 (A498 renal): 1.98 µM and 4.94 µM
- TGI (A498 renal): > 50 µM
- TGI (M19-MEL melanoma): 14.8 µM and > 39.5 µM
- TGI (HOP-92 NSCLC): 3.72 µM and > 20.3 µM

Compound: CC(=O)n1ccc2c(Cl)ncnc21
- TGI (SNB-78 CNS): > 100 µM
- TGI (KM20L2 colon): > 100 µM
- TGI (DMS 114 small cell lung): > 100 µM
- TGI (A549 NSCLC): > 100 µM
- TGI (DMS 273 small cell lung): > 100 µM
- TGI (LXFL 529 NSCLC): > 100 µM
- TGI (SF-295 CNS): > 100 µM
- TGI (DLD-1 colon): > 100 µM
- TGI (HOP-18 NSCLC): > 100 µM
- TGI (A498 renal): > 100 µM
- TGI (M19-MEL melanoma): > 100 µM
- TGI (HOP-92 NSCLC): > 100 µM

Compound: CC(C)N(C(C)C)P(OCCC#N)OC1CC(n2cnc3c(=O)[nH]cnc32)OC1COC(=O)NCCCCCCNC(=O)OC(C)(C)c1ccc(-c2ccccc2)cc1 (stereo not drawn)
- TGI (SNB-78 CNS): > 100 µM
- TGI (KM20L2 colon): > 100 µM
- TGI (DMS 114 small cell lung): 41.6 µM
- TGI (A549 NSCLC): > 100 µM
- TGI (DMS 273 small cell lung): 32.1 µM
- TGI (LXFL 529 NSCLC): 32.5 µM
- TGI (NCI-H226 lung): 55.2 µM
- TGI (SF-295 CNS): > 100 µM
- TGI (DLD-1 colon): > 100 µM
- TGI (HOP-18 NSCLC): > 100 µM
- TGI (A498 renal): > 100 µM
- TGI (M19-MEL melanoma): 42.2 µM
- TGI (HOP-92 NSCLC): 75.7 µM

Compound: CC(=O)C1(O)Cc2c(O)c3c(c(O)c2C(OC2CC(N)C(O)C(C)O2)C1)C(=O)c1ccccc1C3=O (stereo not drawn)
- TGI (SNB-78 CNS): 0.592 µM
- TGI (KM20L2 colon): 0.203 µM
- TGI (A549 NSCLC): 0.338 µM
- TGI (DMS 273 small cell lung): < 0.0108 µM
- TGI (LXFL 529 NSCLC): 0.25 µM
- GI50 (NCI-H226 lung): < 0.0113 µM
- TGI (NCI-H226 lung): 0.139 µM and 0.0538 µM
- TGI (SF-295 CNS): 0.388 µM and 0.0514 µM
- TGI (DLD-1 colon): 0.498 µM
- TGI (HOP-18 NSCLC): 0.0869 µM
- TGI (A498 renal): 0.0453 µM
- TGI (M19-MEL melanoma): 0.121 µM
- GI50 (HOP-92 NSCLC): 0.0165 µM
- TGI (HOP-92 NSCLC): 0.867 µM and 0.413 µM

Compound: CCN(CC)CCNc1ccc2ncn3c4cc(=O)ccc4c(O)c1c23
- TGI (SNB-78 CNS): 25.4 µM
- TGI (KM20L2 colon): 16.4 µM
- TGI (DMS 114 small cell lung): 18.1 µM
- TGI (A549 NSCLC): 12.1 µM
- TGI (DMS 273 small cell lung): 13.2 µM
- TGI (LXFL 529 NSCLC): 20.5 µM
- TGI (NCI-H226 lung): 11.4 µM
- TGI (SF-295 CNS): 10.7 µM
- TGI (DLD-1 colon): 17 µM
- TGI (A498 renal): 14 µM
- TGI (M19-MEL melanoma): 16.5 µM
- TGI (HOP-92 NSCLC): 6.78 µM
